# According to patent US20100093675A1, “NOVEL METHOD” (BIOXELL S.P.A., priority 2006, published 2010):
# “Also recorded” adds a separate entry of the source.
# How the values were obtained:
# [1] = Colorimetric serum calcium level in animals of the adhesion experiment (FIG. 4); assay type: in vivo, mouse; conditions: animals of the FIG. 3 experiment
# Procedure: (§1) Serum calcium was measured with Calcium Dry-fast kit (Sentinel diagnostics, Milan, Italy) with minor modification over the standard method: 10 ul serum, standard solution, or water are added to 100 ul of reconstituted assay reagent in a 96 well plate and incubated 5 min before reading at 550 nm, RT. Standards are run in quadruplicate, blank (water) in duplicate, and samples in triplicate.
# Blood serum was obtained from animals of the experiment described in FIG. 3 and calcium level was measured.
# Balb/c mice = test: Mouse caecum abrasion model of post surgical adhesion formation; assay type: in vivo; conditions: for total adhesions score: sacrifice day seven, vs vehicle; for adhesion score / length (mm) of caecum adherent to peritoneum, difference to vehicle groups: Compound X 200, Compound Y 30, calcitriol 0.6 ug/kg i.p. once, then orally at MTD (100, 3, 0.3 ug/kg) once a day for 4 days, day seven, Anova with Bonferroni, FIG. 3
# Excerpt: Female BALB/c mice (20 g; Charles River Breeding Laboratories) were used for all experiments. All mice were maintained under standard conditions of food and water ad libitum on a 12-hour day-night cycle according to Home Office regulations.
# Adhesions were induced in mice with a protocol based on a procedure developed by Sulaiman and colleagues (Sulaiman H, Gabella G, Davis C, Mutsaers S E, Boulos P, Laurent G J, Herrick S E: Growth of nerve fibres into murine peritoneal adhesions. J Pathol 2000, 192:396-403). Briefly, mice were anesthetized with a mixture of inhaled isoflurane and oxygen, and a midline incision was made through the abdominal wall and peritoneum. A standard site (6 mm diameter and 1 mm depth), midway and 0.5 cm lateral to the midline incision on the left abdominal wall, was injured scraping 30 times with a scalpel blade. The cecum was isolated and scraped 30 times on its lateral aspect with a scalpel blade, after first irrigating with 0.9% sterile saline. The two injured surfaces were then apposed by placing two horizontal mattress sutures (8/0 Ethilon; Ethicon, Berkshire, UK) 1 cm apart. The midline incision was closed in two layers; the linea-alba with a continuous suture, and then the skin using michel suture clips (Aesculap, Tuttlingen Germany). This model was validated using leuprolide acetate, a GnRH agonist (Enantone, Takeida) injected at 1 mg/kg one week before surgery. The animals were sacrified at day 7 as usual and adhesion score reduction was evaluated.
# To assess the effects of vitamin D compounds on adhesion formation, peritoneal adhesions were induced in 10 animals that were randomized to experimental groups receiving the vitamin D compound or vehicle. In the initial study, animals in the experimental group (n=5) received 0.1-ml i.p. injection of 200 ug/kg of Compound X in saline solution or vehicle (saline solution) only (n=5), at the surgery day then 4 days of daily oral administration (Compound X 100 ug/kg in miglyol or miglyol vehicle only). A second experiment was done with one group of animals (n=5) receiving 0.1-ml i.p. injection of 6 ug/kg of Compound Y in saline solution at the surgery day and then 4 days of daily oral administration (3 ug/kg in miglyol). Control animals (n=5) were similarly administered with vehicle alone (miglyol or saline solution according to the route of administration). The third experiment was designed to compare the effect of calcitriol. Briefly, 28 animals were operated and randomized four different groups: vehicle (miglyol or saline solution according to the route of administration) (n=13), Compound X i.p. […] 30 ug/kg plus three days oral administration at MTD (n=5), calcitriol i.p. […] All animals were killed at 7 days, and the adhesions were quantified in a blinded fashion. Each animal received an adhesion score based on the number, length and strength of adhesions formed. Millimetres of caecum adherent to peritoneum was also measured.
# [2] = Serum calcemia after i.p. or i.p. plus oral Compound Y in CD1 mice (FIG. 5); assay type: in vivo, mouse; conditions: different doses i.p., or i.p. plus oral for 3 days at MTD (3 ug/kg), 24 h after the last administration
# Procedure: as §1
# CD1 mice were used to test serum calcemia after different doses of Compound Y administered i.p. A second group of animals received both i.p. (different doses) and oral administration for 3 days at MTD (3 ug/kg). Serum calcemia was measured 24 h after the last administration.
# [3] = tested on: Human mesothelial cells (LP9); test: tPA and PAI-1 production by ELISA in human mesothelial cells; assay type: cell-based; conditions: different doses; supernatants at 48 h; FIG. 8
# Procedure: Human mesothelial cells (LP9, Cornell University) were plated in a 96 well plate in the presence of different doses of Compound Y. Supernatants were harvested at 48 h and tPA and PAI-1 production was measured by ELISA. tPA/PAI-1 ratio was calculated. Statistical analysis was performed by ANOVA test.
# hairless mice = test: Full thickness wound healing mouse model; assay type: in vivo; conditions: daily oral 3 mg/kg, 5 days a week, 5 hairless mice per group, vs vehicle, FIG. 13
# Procedure: One full thickness wound of 1 cm in diameter was marked using a template and the tissue was excised to the level of the panniculus carnosus using dissecting scissors and forceps. The wound healing was determined by drawing the wound margin with tracing film. The rate of wound healing is expressed as the percentage area remaining 5 hairless mice per group, daily oral treatment with 3 mg/kg of Compound Y, 5 days a week. Wound healing curve using the Boltzman equation and V50 (half time of wound healing) were calculated.
# 3T3-L1 cells = test: Fibrin clot lysis by mouse fibroblasts 3T3-L1; assay type: cell-based; conditions: cells incubated overnight with 10^-6 to 10^-9 M; normalized to untreated cells; FIG. 7
# Procedure: Confluent 3T3-L1 cells were incubated overnight with the following compounds: TGF-β1 5 ng/ml, Compound Y 10^−6, 10^−7, 10^−8 and 10^−9 M. After removing the supernatants, Fibrinolysis Buffer containing 3 μM fibrinogen and 100 nM plasminogen (“BM”) was added to each well. A fibrin clot was induced by adding 20 nM thrombin. Plates were incubated at 37° C. and clot density was determined by measuring optical density at 405 nm. Results were shown as relative fibrin clot density at different timepoints normalized to untreated cells.
# CPSS mouse model = test: CPSS (cecal peritoneal scraping and sewing) mouse model of post-surgical adhesion, dose response; assay type: in vivo; conditions: 30-100-300 ug/kg i.p. at the end of surgery; sacrifice after two weeks; vs vehicle; FIG. 10
# Procedure: Different doses of Compound Y were tested in the CPSS (cecal peritoneal scraping and sewing) mouse model of post-surgical adhesion. Animals were treated with 30-100-300 ug/kg of Compound Y in […] of sterile saline with 0.1% Tween-20, 0.1% ethanol, i.p. at the end of surgery. Animals were sacrificed after two weeks and peritoneral adhesion evaluated. Means of in situ score of the four groups were compared and percentage of reduction of the mean in situ score of treated animals compared with vehicle group was considered.
# C57/BL6 mice = test: CLP (cecal ligation and puncture) mortality due to infection potentiation; assay type: in vivo, mouse; conditions: 30 mg/kg IP on the day of surgery; ten mice per group; vs vehicle; FIG. 15
# Procedure: CLP (cecal ligation and puncture) was performed with 23G needle and 50-70% of cecal ligation. Compound Y 30 mg/kg was administered IP on the day of surgery. The mortality was checked twice a day. Ten C57/BL6 mice per group were used.
# [4] = Serum calcium levels in DUH rabbit model animals; assay type: in vivo; conditions: both doses; prior to surgery, 24 hours after surgery and prior to necropsy; FIG. 12
# Procedure: One ml of blood was drawn into red top tubes prior to surgery, 24 hours after surgery and prior to necropsy to allow the generation of serum to measure serum calcium levels. The blood was allowed to clot, the serum harvested by centrifugation and the serum calcium measured.
# [5] = Intraperitoneal single administration, serum calcium levels; assay type: in vivo, mouse; conditions: female BALB/c mice, single i.p., FIG. 9
# [6] = tested on: New Zealand White rabbits; test: Double uterine horn (DUH) rabbit model of post-surgical adhesions; assay type: in vivo
# Procedure: Animals: Twenty eight, female New Zealand White rabbits, 2.4-2.7 kg, were purchased from Irish Farms (Norco, Calif.) and quarantined for at least 2 days prior to use. Seven rabbits were randomized into four treatment groups prior to initiation of surgery. The rabbits were housed on a 12:12 light:dark cycle with food and water available ad libitum.
# Double Uterine Horn Model: Rabbits were anesthetized with a mixture of 55 mg/kg ketamine hydrochloride and 5 mg/kg Rompum intramuscularly. Following preparation for sterile surgery, a midline laparotomy was performed. The uterine horns were exteriorized and traumatized by abrasion of the serosal surface with gauze until punctate bleeding developed. Ischemia of both uterine horns was induced by removal of the collateral blood supply. The remaining blood supply to the uterine horns was the ascending branches of the utero-vaginal arterial supply of the myometrium. Treated animals received 25 mL of either vehicle (lactated Ringers' solution with 0.1% Tween 20, 0.1% isopropyl alcohol), or vehicle with one of two doses of Compound Y (30 or 300 μg/kg). An additional group of animals received surgery only. The horns were then returned to their normal anatomic position and the midline sutured with 3-0 Vicryl. The animals were weighed before surgery and necropsy.
# After 7 days, the rabbits were terminated and the percentage of the area of the horns adherent to various organs determined.
# In addition an overall score which took into account all of the above data was given to each rabbit. The following scoring system was used:
# The rabbits were scored by two independent observers that were blinded to the prior treatment of the animal. If there was disagreement as to the score to be assigned to an individual animal, the higher score was given.
# Human mesothelial cells = test: VEGF and TGF-b production by ELISA in human mesothelial cells; assay type: cell-based; conditions: different doses; supernatants at 48 h; FIG. 14
# Procedure: Human mesothelial cells (Cornell Cell Repositories) were plated in a 96 well plate in the presence of different doses of Compound Y. Supernatants were harvested at 48 h and VEGF and TGF-b production was measured by ELISA. Total number of live cells were quantified by fluorimetric assay.
smiles,measurement,setting,value
"C=C1/C(=C\C=C2/CCC[C@]3(C)C([C@@H](C)C/C=C/C(O)(CC)CC)=CC[C@@H]23)C[C@@H](O)C[C@@H]1F [Compound X, 1-alpha-fluoro-25-hydroxy-16,23E-diene-26,27-bishomo-20-epi-cholecalciferol]",serum calcium level,[1],slightly hypercalcemic
same,total adhesions score,"Balb/c mice; 200 ug/kg i.p. once four hours after surgery, then oral 100 ug/kg once a day for 4 days, FIG. 1",significantly reduces
same,"adhesion score / length (mm) of caecum adherent to peritoneum, difference to vehicle groups",Balb/c mice,statistically significant
"CC(C)(O)CCCC(CCCC(C)(C)O)[C@H]1CC[C@H]2/C(=C/C=C3C[C@@H](O)C[C@H](O)C3)CCC[C@]12C [Compound Y, 1,25-dihydroxy-21-(3-hydroxy-3-methylbutyl)-19-nor-cholecalciferol]",serum calcemia,[2],no hypercalcemic effect
same,tPA/PAI-1 ratio,[3],increased
same,"wound healing (percentage wound area remaining, healing curve, V50)",hairless mice,No statistically significant difference; also recorded: does not delay wound healing
same,"fibrin clot lysis (relative fibrin clot density, OD 405 nm)",3T3-L1 cells,accelerates fibrin clot lysis by mouse fibroblasts in a dose dependent manner
same,cecal-peritoneal adhesion formation (mean in situ score),CPSS mouse model,reduces cecal-peritoneal adhesion formation in a dose dependent manner
same,"mortality (survival curves, log rank test)",C57/BL6 mice,no statistically significant difference
same,serum calcium (signs of hypercalcemia),[4],No signs of hypercalcemia
same,serum calcemia,[5]; high dosage (300 mg/kg),Transient hypercalcemia
same,adhesion formation (overall adhesion score),"[6]; 30 or 300 ug/kg in 25 mL at surgery, 7 days, P<0.001 for both doses compared with both controls, FIG. 11",significantly reduced
same,"peritoneal inflammation, weight loss or hypercalcemia at necropsy","[6]; 30 or 300 ug/kg, necropsy after 7 days","No peritoneal inflammation, weight loss or hypercalcemia were observed"
same,efficacy in preventing adhesion formation compared with prior studies of icodextrin,"[6]; DUH rabbit model, icodextrin data from Verco et al. 2000, FIG. 16",comparable efficacy
same,efficacy in preventing adhesion formation compared with prior studies of lazaroids,"[6]; DUH rabbit model, lazaroid data from Rodgers et al. 1998, FIG. 17",comparable efficacy
same,TGF-b production,Human mesothelial cells,does not affect
same,VEGF production,Human mesothelial cells,does not affect
same,total adhesions score,"Balb/c mice; 6 ug/kg i.p. once four hours after surgery, then orally 3 ug/kg once a day for 4 days, FIG. 2",significantly reduces
same,"adhesion score / length (mm) of caecum adherent to peritoneum, difference to vehicle groups",Balb/c mice,statistically significant
"C=C1/C(=C\C=C2/CCC[C@]3(C)[C@@H]([C@H](C)CCCC(C)(C)O)CC[C@@H]23)C[C@@H](O)C[C@@H]1O [calcitriol, reference compound]",serum calcemia,[5]; 16 and 24 hours after administration,more pronounced and sustained hypercalcemia
same,"adhesion score / length (mm) of caecum adherent to peritoneum, difference to vehicle groups",Balb/c mice,statistically significant
"CCNC(=O)[C@@H]1CCCN1C(=O)[C@H](CCCNC(=N)N)NC(=O)[C@H](CC(C)C)NC(=O)[C@@H](CC(C)C)NC(=O)[C@H](Cc1ccc(O)cc1)NC(=O)[C@H](CO)NC(=O)[C@H](Cc1c[nH]c2ccccc12)NC(=O)[C@H](Cc1c[nH]cn1)NC(=O)[C@@H]1CCC(=O)N1 [leuprolide acetate, reference compound]",total adhesion score,"Balb/c mice; 1 mg/kg injected one week before surgery, sacrifice day 7, model validation, FIG. 6",statistically significant reduction
